Data taken from patent US20200399238A1, “THERAPEUTIC AURONES” (MIDDLE TENNESSEE STATE UNIVERSITY, priority 2016, published 2020).
Like-named read-outs stand apart in the source and are kept apart here.

Key:
[1] = tested on: Trypanosoma brucei brucei 427 cells; assay: T. brucei culture and assay (PrestoBlue); type: cell-based
[2] = tested on: Trypanosoma cruzi Tulahuen trypomastigotes; assay: T. cruzi extracellular assay (CellTiter Glo); type: cell-based; conditions: Trypanosoma cruzi, TULAHUEN
[3] = tested on: rat skeletal muscle cell line, L6; assay: cells; type: cell-based
[4] = tested on: Leishmania amazonensis promastigotes expressing beta-lactamase; assay: microbe, parasite or virus in culture; type: cell-based
[5] = tested on: Trypanosoma cruzi Tulahuen cells expressing beta-galactosidase; assay: T. cruzi intracellular assay (beta-galactosidase, L6 host cells); conditions: Trypanosoma cruzi, TULAHUEN
[6] = tested on: C. albicans (ATCC strain 90028); assay: Antifungal microdilution broth assay (PrestoBlue), C. albicans; type: cell-based, Candida albicans; conditions: Candida albicans, ATCC90028, Table 4B; C. albicans; 100 μM; value ± spread; read-out: Percent Inhibition (at 100 μM)
Procedure: Sigma-Aldrich) was used as the base medium for testing. […] solution of morpholinepropanesulfonic acid (MOPS; Sigma-Aldrich) was added to the RPMI to a final concentration of 0.165 M for buffering (RPMI-MOPS). This medium was adjusted to a pH of 7.0 with 10 M NaOH and filter sterilized. C. albicans (ATCC strain 90028), C. [NT] strain 66032), and C. tropicalis (ATCC strain 750) were cultured on potato dextrose agar (Sigma-Aldrich) plates, and incubated at 35° C. for 24 hours. For antifungal testing, overnight colonies were adjusted to 1.5×10^3 cells/mL, hereafter referred to as the test inoculum. PrestoBlue® (Life Technologies, Invitrogen, Carlsbad, Calif.), a resazurin-based cell viability reagent that, in metabolically active cells, is reduced from blue, non-fluorescent resazurin, to red, fluorescent resorufin, was used to assess inhibition of yeast growth by the aurones. […] Following addition of aurone, plates were then incubated for 24 hours at 35° C. PrestoBlue was added to a final concentration of 10% in each well and fluorescence read at 560 nm excitation and 590 nm emission, per manufacturer instructions, using a SpectraMax M2e spectrophotometer (Molecular Devices, LLC, Sunnyvale, Calif.). To optimize the PrestoBlue reduction time, RFUs were collected at 15 minute intervals for 4 hours using a reference antifungal. […] IC50 determination was calculated using GraphPad Prism version 7.01 for Windows (GraphPad Software, Inc., La Jolla, Calif.) from the RFUs at dilution points. Calculations were made with a nonlinear regression after transforming the molar concentrations of the aurones into the logarithmic form. Graphing was accomplished utilizing the same program following a four parameter curve fitting sigmoidal plot of the data. All aurones and controls were tested in triplicate and all testing was repeated in at least three independent experiments.

[7] = Trypanosoma brucei, Table 1, mean of 2(+) independent trials, read-out: IC50 T. brucei
[8] = Table 1, ^b extracellular T. cruzi assay, read-out: IC50 T. cruzi
[9] = Table 2, extracellular assay, read-out: IC50 T. cruzi (footnote b: Extracellular T. cruzi assay)
[10] = Rattus norvegicus, Table 1, read-out: IC50 Toxicity (L6)
[11] = Leishmania amazonensis, read-out: IC50 L. amaz.
[12] = Table 2, L6 mammalian cells, read-out: IC50 Toxicity (L6)
[13] = Table 2, L6 IC50 / L. amazonensis IC50
[14] = read-out: IC50 T. cruzi, Table 1, intracellular assay, mean of 2(+) trials (^c one trial)
[15] = read-out: IC50 T. cruzi, Table 2, intracellular assay, mean of 2(+) independent trials
[16] = read-out: IC50 TC-I, Table 3B, weighted means of two or more independent trials
[17] = Rattus norvegicus, Table 3B, weighted means of two or more independent trials, read-out: IC50 L6

Row | SMILES | IC50 [1, 7] [µM] | IC50 [3, 10] [µM] | IC50 [4, 11] [µM] | IC50 [5, 14] [µM] | IC50 [5, 15] [µM] | IC50 [5, 16] [µM] | IC50 [3, 17] [µM] | melting point [°C] | also measured
1 | CC(=O)N1/C(=C\c2ccc(CO)o2)C(=O)c2ccccc21 [AA4A] | 34.7 | 87 | < 1 |  |  |  |  |  | IC50 [2, 8]: > 50 µM; IC50 [2, 9]: > 50 µM; IC50 ([4]; Leishmania amazonensis, read-out: IC50 L. amaz. (footnote c: value obtained from one trial)): < 1 µM
2 | N#Cc1ccc(/C=C2\Oc3ccc(Br)cc3C2=O)cc1 [Aurone 6003, (Z)-4-((5-bromo-3-oxobenzofuran-2(3H)-ylidene)methyl)benzonitrile] | 17.1 | > 100 | 1.22 |  |  |  |  |  | Selectivity L6/Tb ([1]; Table 1): >5.85; Selectivity L6/Tb ([1]; Table 2, L6 IC50 / T. brucei IC50): >5.85; IC50 [2, 8]: > 50 µM; IC50 [2, 9]: > 50 µM; IC50 [3, 12]: > 100 µM; Selectivity L6/La ([4]; Table 1): >81.97; Selectivity L6/La [4, 13]: >81.97
3 | O=C1/C(=C/c2sccc2Br)Oc2ccccc21 [Aurone 9060] | > 50 | > 100 | 1.36 | 34.6 | 34.6 | 34.6 | > 100 | 176 to 180 | 
4 | O=C1/C(=C/c2cc(Br)cs2)Oc2ccccc21 [Aurone 9061, (Z)-2-((4-bromothiophen-2-yl)methylene)benzofuran-3(2H)-one] | > 50 | > 100 | 1.7 | > 50 | > 50 | > 50 | > 100 | 125 to 129 | 
5 | O=C1/C(=C/c2cccc3[nH]ccc23)Oc2ccccc21 [Aurone 9063, (Z)-2-((1H-indol-4-yl)methylene)benzofuran-3(2H)-one] | > 50 | 94 | 1.13 | 18.9 | 18.9 | 18.9 | 94 | 230 to 238 | 
6 | O=C1/C(=C/c2ccc(CO)o2)Oc2ccccc21 [Aurone 9067, (Z)-2-((5-(hydroxymethyl)furan-2-yl)methylene)benzofuran-3(2H)-one] | 34.9 | 31.1 | < 1 | 12.5 | 12.5 | 12.5 | 31.1 | 61 to 63 | IC50 ([5]; read-out: T. cruzi IC50 dose): 12.5 µM; IC50 ([3]; Rattus norvegicus, read-out: toxicity in L6): 31.1 µM
7 | O=C1/C(=C/c2ccc(O)cc2)Oc2ccccc21 [Aurone 9068, (Z)-2-(4-hydroxybenzylidene)benzofuran-3(2H)-one] | > 50 | > 200 | 1.57 | > 50 | > 50 |  |  | 258 to 260 | 
8 | N#Cc1cccc(/C=C2\Oc3ccccc3C2=O)c1 [Aurone 9070, (Z)-3-((3-oxobenzofuran-2(3H)-ylidene)methyl)benzonitrile] | 34.7 | > 200 | < 1 | 16.7 | 16.7 |  |  | 175 to 177 | 
9 | N#Cc1ccc(/C=C2\Oc3cc(O)ccc3C2=O)cc1 [Aurone 9076, (Z)-4-((6-hydroxy-3-oxobenzofuran-2(3H)-ylidene)methyl)benzonitrile] | > 50 | > 100 | 2.44 | 26.3 | 26.3 |  |  | 112 to 115 | 
10 | O=C1/C(=C/c2ccc(C(F)(F)F)cc2)Oc2ccccc21 [Aurone 9084, (Z)-2-(4-(trifluoromethyl)benzylidene)benzofuran-3(2H)-one] | 20.4 | > 400 | 2.94 | 9.38 | 9.38 |  |  | 98 to 102 | 
11 | O=C1/C(=C/c2cccc(C(F)(F)F)c2)Oc2ccccc21 [Aurone 9085, (Z)-2-(3-(trifluoromethyl)benzylidene)benzofuran-3(2H)-one] | > 50 | 73.4 | 4.43 | 11.1 | 11.1 |  |  | 128 to 133 | 
12 | O=C1/C(=C/c2ccccc2C(F)(F)F)Oc2ccccc21 [Aurone 9086, (Z)-2-(2-(trifluoromethyl)benzylidene)benzofuran-3(2H)-one] | 37.6 | 130 | 1.9 | 18.5 | 18.5 |  |  | 118 to 123 | 
13 | O=C1/C(=C/c2ccccc2O)Oc2ccccc21 [Aurone 9088, (Z)-2-(2-hydroxybenzylidene)benzofuran-3(2H)-one] | > 50 | > 100 | 9.54 | 18.4 | 18.4 |  |  | 215 to 216 | inhibition at 100 µM [6]: 1 ± 1.1%
14 | O=C1/C(=C/c2cccnc2)Oc2ccccc21 [Aurone 9253, (Z)-2-(pyridin-3-ylmethylene)benzofuran-3(2H)-one] | > 50 | < 100 | 7.38 | 17.8 | 17.8 | 17.8 | > 100 | 122 to 123 | IC50 ([1]; Trypanosoma brucei, read-out: IC50 TB): > 50 µM
15 | N=C1/C(=C/c2ccccn2)Oc2ccc(F)cc21 [Aurone 9312, (Z)-5-fluoro-2-(pyridin-2-ylmethylene)benzofuran-3(2H)-imine] | > 50 | > 200 | < 1 |  |  |  |  |  | IC50 ([1]; Table 2, mean of 2(+) independent trials, read-out: IC50 T. brucei): > 50 µM; IC50 [2, 8]: > 50 µM; IC50 [2, 9]: > 50 µM; IC50 [3, 12]: > 200 µM; Selectivity L6/La ([4]; Table 1): >200; Selectivity L6/La [4, 13]: >200; IC50 ([4]; read-out: IC50 L. amaz., Table 2, mean of 2(+) independent trials): < 1 µM
16 | O=C1/C(=C/c2ccc(CO)o2)Sc2ccccc21 [TA2] | 11.4 | > 200 | < 1 |  |  |  |  |  | IC50 [2, 8]: > 50 µM; IC50 [2, 9]: > 50 µM
